Source: patent publication US5422393A, “Natriuretic hormone” (Naturon Pharmaceutical Corporation, priority 1993, dated 1995)
“And” between values parts separate entries of the source, which are not always exact repeats. Identical values can stand only once.

Molecular target: T1, Na-K-ATPase (Bos taurus, UniProt Q08DA1)
T1 construct: 86Rb uptake
Assay: Microassay: inhibition of ^86 Rb uptake by MDBK cell cultures
Format: cell-based, bovine
Excerpt: Such a cell line is available from the American Type Culture Collection, 12301 Park Lawn Drive, Rockville, Md. 20852. USA, where it is identified by the reference ATCC CCL34 (certified cell line). The preferred method of assaying bioactivity according to the present invention, described in Example II below, employs a microassay which is based upon the ability of the natriuretic compound of the present invention to inhibit ^86 Rb influx by MDBK cells grown in culture. Ouabain (10^-5 M) is used as the reference inhibitor.
The natriuretic activity of the Natriuretic Hormone can be ascertained by its effect on the uptake of ^86 Rb by MDBK ([…] Bovine Kidney Cell) cultures. […]
Approximately 200,000 MDBK cells were plated in trays containing 12 […] wells, and grown for four days at 37° C. in Dulbecco's modified Eagle media (DMEM) (Gibco #430-2100), to which was added (per liter) 3.7 g sodium bicarbonate, 5 mg phenol red, 10% fetal calf serum, 10^6 units penicillin-G sulfate, 0.1 g equivalent base streptomycin sulfate, 7.34 mg polymyxin-B sulfate, and 3.4 mg fungizone and maintained in an atmosphere of 5% CO2, 95% air. […] 0.5 ml of 5% TCA was added to each well and incubated for 10 minutes at 37° C. to release radioactivity inside the cells. […] The ^86 Rb activity was counted in a scintillation counter (Beckman LS 3-801). […] Data were recorded as cpm/mg cell protein. […]

With `C[C@@H]1O[C@@H](O[C@H]2C[C@@H](O)[C@]3(CO)[C@H]4[C@H](O)C[C@]5(C)[C@@H](C6=CC(=O)OC6)CC[C@]5(O)[C@@H]4CC[C@]3(O)C2)[C@H](O)[C@H](O)[C@H]1O` [Ouabain] the “^86 Rb uptake, cpm/mg of protein” value (10^-5 M ouabain, positive control, run in duplicate) was 17,649 cpm/mg of protein and 15,611 cpm/mg of protein and the inhibition at 10 µM (MDBK, read-out: % inhibition of ^86 Rb uptake) was 77.7%.
